Entries after “also recorded” stand apart in the source; their conditions may differ.
What was measured:
[1] = system: P. falciparum drug-sensitive 3D7 strain; experiment: Erythrocytic-stage parasite growth inhibition, diaphorase-coupled LDH assay, 3D7; format: cell-based, Plasmodium falciparum; settings: Plasmodium falciparum, 3D7; Table S1; means ± SEM; read-out: IC50 (μM) Pf cell 3D7
Method: (§1) Selected hit compounds were also tested against erythrocytic-stage parasites of P. falciparum drug-sensitive 3D7 and drug-resistant Dd2 strains ([39]). For the phenotypic assay, parasite cultures were synchronized with 5% (wt/vol) D-sorbitol as previously described ([40]). A synchronized culture containing ring-stage parasites of 0.3% parasitemia was initiated with a culture volume of 25 μL/well on a 384-well plate. A series of diluted compounds (at final concentrations of 50, 10, 2, 0.4, and 0.08 μM) were used to calculate IC50 values. Mefloquine at 50 μM and atovaquone at 20 μM were used as no-growth control (100% inhibition). After 72 h of incubation, parasite growth was measured by diaphorase-coupled lactate dehydrogenase (LDH) assay as previously described ([41]). Absorbance at 650 nm was measured using SpectraMax Paradigm multimode microplate reader (Molecular Devices, San Jose, CA, USA). The IC50 values were calculated as described above.

[2] = system: P. falciparum drug-resistant Dd2 strain; experiment: Erythrocytic-stage parasite growth inhibition, diaphorase-coupled LDH assay, Dd2; format: cell-based, Plasmodium falciparum; settings: Plasmodium falciparum, DD2; Table S1; means ± SEM; read-out: IC50 (μM) Pf cell Dd2
Method: as §1

PfDPCK [3] = biological target: T1, PfDPCK (Plasmodium falciparum, UniProt Q8IL34); experiment: Mechanism of PfDPCK inhibition by Lineweaver-Burk plot; format: biochemical
Method: In order to understand the mechanism of PfDPCK inhibition of the identified compounds, we independently selected compounds from 359 PfDPCK-specific inhibitor candidates (showing >40% inhibition at 10 μM against PfDPCK), based on the more stringent criteria of >80% inhibition at 10 μM against PfDPCK and <10% inhibition against HsCOASY, to yield 30 hits. The hits were prioritized using a multiparameter optimization (MPO) scoring model, developed by MMV (https://www.optibrium.com/downloads/scoring-profiles/mmv-antimalarial-scoring-profile/) based on calculated physicochemical properties, including molecular weight, logP, hydrogen bond donors and acceptors, rotatable bonds, and structural alerts ([20], [21]). We finally chose six representative compounds (A-15, A-33, and A-69, shown in Table S1, and other three compounds; A-126, A-127, and A-128) by manual inspection with “chemist eye” for chemical attractiveness (druglikeness). […] Furthermore, two compounds, A-33 and A-69, are considered to be pan-assay interference compounds (PAINS) (phenolic Mannich base) ([22]). We consequently focused on two commercially available compounds (A-15 and A-127) (Fig. 6A) and investigated their mechanism of inhibition. We differentiated the type of inhibition by Lineweaver-Burk plot with various concentrations of one substrate (dephospho-CoA or ATP), while the other substrate was given in saturating concentrations in kinetic studies (Fig. 5).
FIG 5 Lineweaver-Burk plots showing inhibition of two compounds, compound A-15 (A, B) and compound A-127 (C, D) on the PfDPCK activity. The enzymatic activities were determined with various concentrations of dephospho-CoA and 200 μM ATP (A, C) or various concentrations of ATP and 200 μM dephospho-CoA (B, D) in the presence of a range of concentrations of inhibitors. Data are shown in means ± SEMs of triplicate.
PfDPCK and HsCOASY activity was measured by quantifying ADP produced in the reaction by a coupling assay using the ADP Hunter Plus assay kit (DiscoverX, USA) according to the manufacturer's instructions. Briefly, enzymatic reactions were carried out in a 20-μL mixture of assay buffer containing 15 mM HEPES, 20 mM NaCl, 1 mM EGTA, 0.02% Tween 20, 10 mM MgCl2, 0.1% bovine gamma globulin, 50 ng of recombinant PfDPCK or HsCOASY, 4 to 256 μM dephospho-CoA, and 5 to 300 μM ATP on a black microplate. All reactions were performed for 2 h, reagents A and B were added, and they were then reincubated for 60 min at 30°C. After reactions were terminated by addition of ADP Hunter Stop solution, the fluorescent signal was measured using SpectraMax Paradigm (Molecular Devices, CA, USA) at excitation and emission wavelengths of 530 and 590 nm, respectively. The kinetic parameters were calculated using the nonlinear regression function using the single saturating concentrations of the substrates by the GraphPad Prism software (GraphPad Software Inc., San Diego, CA). The experiments were repeated three times in triplicate using proteins purified from independent cultures. Kinetic values of enzymes are presented as the means ± standard errors (SEs).

PfDPCK [4] = biological target: T1, PfDPCK; experiment: PfDPCK inhibition, enzyme-coupled fluorescence ADP detection assay (HTS and IC50 determination); format: biochemical; settings: Table 2, PfDPCK inhibitor scaffolds Gr4, Gr5, Gr8; read-out: IC50
Method: High-throughput screening against recombinant PfDPCK was performed using the Drug Discovery Initiative (DDI) full library, available from The University of Tokyo, composed of approximately 210,000 compounds. The primary assay was performed on 1,536-well white plate format with a final volume of 2 μL/well, containing 10 μM test compounds using a Multidrop Combi reagent dispenser (Thermo Fisher Scientific, Waltham, MA). The reaction was conducted in the assay buffer described above with 100 μM ATP and 50 μM dephospho-CoA. The assay was carried out at room temperature for 4 h in a closed plastic container with wet tissues. The reaction was stopped, and produced ADP was quantified using an enzyme-coupled fluorescence ADP detection assay, using PHERAstar microplate reader (BMG Labtech, Offenburg, Germany) with excitation at 540 nm and emission at 590 nm, as previously described ([17]). The inhibition level was calculated as the percentage inhibition of DPCK activity with each compound compared to the activity with only dimethyl sulfoxide (DMSO) as control (no inhibition) and that with no enzyme as 100% inhibition. IC50 values of the hit compounds were determined under the same assay conditions for the screening: Z′ factor, signal-to-background ratio (S/B), signal-to-noise ratio (S/N), and coefficient of variation (CV) were calculated to estimate the quality of screening system as previously described ([18], [38]).
The primary hits were reassayed in quadruplicate (n = 4) as in the primary screening. We next tested the confirmed secondary hits to exclude false positives that inhibit coupled fluorescence assay, but not PfDPCK. After exclusion of false positives, all tertiary hits were tested against human HsCOASY in the counterassay to exclude compounds that inhibit both PfDPCK and HsCOASY. The compounds showing >10% inhibition against HsCOASY were excluded from further studies. The IC50 values of the hit compounds were determined under the same assay conditions described as above for the primary screening, with the serially diluted compounds at 20, 10, 2.5, 0.5, and 0.1 μM at final concentrations. The assay was conducted in quadruplicate for each dilution, and IC50 values were calculated using GraphPad Software (San Diego, California USA).

T1 sequence (Q8IL34 entry or part of it): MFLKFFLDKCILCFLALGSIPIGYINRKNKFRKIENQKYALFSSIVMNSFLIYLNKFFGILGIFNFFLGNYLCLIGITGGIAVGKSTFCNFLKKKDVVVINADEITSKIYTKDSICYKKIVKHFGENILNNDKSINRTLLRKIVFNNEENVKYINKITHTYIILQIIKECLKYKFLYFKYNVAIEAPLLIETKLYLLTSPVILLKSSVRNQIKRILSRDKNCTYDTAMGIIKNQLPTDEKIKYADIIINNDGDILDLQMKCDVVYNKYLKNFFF

- IC50 [1]: 9.78 ± 0.23 µM
- IC50 [2]: 9.26 ± 0.26 µM
- Ki (PfDPCK [3]; in respect of ATP, 200 μM dephospho-CoA): 10.4 µM
- Ki (PfDPCK [3]; in respect of dephospho-CoA, 200 μM ATP): 0.47 µM
- IC50 (PfDPCK [4]): 1.93 ± 0.04 µM
SMILES: CC(C)(C)c1cc(C(=O)Cn2c(NCCO)nc3ccccc32)cc(C(C)(C)C)c1O [Compound A-15]
- type of inhibition (PfDPCK [3]; in respect of dephospho-CoA and ATP, Lineweaver-Burk plot): competitively inhibits; also recorded: competitive inhibition
